Values of other authors, collected in patent US20240382574A1, “METHODS AND COMPOSITIONS FOR ORALLY DOSING ANIMALS” (Animal Science Products, Inc., priority 2023, published 2024).

Test system: piglets
Settings: previous research

| Compound | attraction of piglets |
| --- | --- |
| CCCCCCCCCCCCCC(=O)O [myristic acid, tetradecanoic acid (myristic acid)] | piglets are attracted to these molecules |
| 3-methylindole (skatole) | piglets are attracted to these molecules |
